{
  "source": "patent US6610501B2",
  "about": "“Porcine protein and uses thereof” (New York Blood Center, Inc., priority 1999, dated 2003)",
  "format_in_all_cases": "cell-based, porcine",
  "key": {"pRBCs [1]": {"system": "pRBCs", "conditions": "1 mg/ml trisaccharide, time course experiment at 37° C.; FIG. 5", "from_the_text": "FIG. 3 represents the procedure for measuring human complement-mediated hemolysis. The procedure is outlined in panel B. Hemolysis (A) is plotted as percent lysis versus volume of human serum added (μl). Lysis is defined as (OD-ODo)/(OD100−ODo), where OD represents the amount of lysis, as measured by the absorbance at 541 nm, ODo is the absorbance at 541 nm that is due to spontaneous lysis in the absence of any additions, and OD100 is the absorbance at 541 nm that is due to 100% lysis of red cells under the experimental conditions. […]\nThe hemolysis was monitored up to 4 hr. […]\nIn blood transfusions between humans, mismatched red cells undergo intravascular destruction by the same mechanism as complement-induced hemolysis observed in vitro. […] Since this serum was derived from type B individuals, as determined by hemagglutination assays, we used only non-type A pRBCs in the complement assays to exclude the binding of anti-A antibody present in the serum.\nThe human serum (between 3-18 μl) was mixed with 40 μl of 5% pRBCs (about 2×10^7 cells) in a total volume of 210 μl. […] Hemoglobin molecules released from the lysed cells into the supernatant were quantitated by measuring the absorbance at 541 nm. […]\nWe also measured the time course for complement-mediated hemolysis of pRBCs (FIG. 5). […]"}, "pRBCs [2]": {"system": "pRBCs", "experiment": "Flow cytometry analysis of binding of human xenoreactive antibodies to pRBCs", "description": "FIG. 7 represents the effect of the trisaccharide of FIG. 4 on the binding of fractions S1 and S2 to pRBCs. 40 μl of the trisaccharide (2 mg/ml) was added to 2 μl of S1 or S2 plus 38 μl of PBS (final concentration of trisaccharide 1 mg/ml), followed by incubation at 4° C. overnight. pRBCs were then added and flow cytometry analysis performed, using anti-human IgG (H+L) conjugated with phycoerythrin (PE) as the secondary antibody. Sample 1: negative control lacking the primary and secondary antibodies. Sample 2: negative control containing the secondary antibody only. Samples 3 and 4: fraction S1 without and with the trisaccharide of FIG. 4, respectively. Samples 5 and 6: fraction S2 without and with the trisaccharide of FIG. 4, respectively.\nFIG. 8 represents the effect of concentration of the trisaccharide of FIG. 4 on the binding of S1 to pRBCs. Fraction S1 was incubated with various amounts of the trisaccharide under the same conditions described in […]. The binding of IgG (curve 1) and IgM (curve 2) molecules from fraction S1 was monitored by flow cytometry, using anti-human IgG and anti-human IgM, respectively. The data from the flow cytometry analyses were plotted as mean fluorescent intensity (MFI) versus the final concentration of trisaccharide, and the curves were generated by nonlinear curve fitting.\nFIG. 9 represents the effect of the trisaccharide of FIG. 4 on the binding of anti-αGal and non-αGal antibodies to pRBCs. The control samples (1 and 2) were as described for FIG. 7. (A): anti-αGal antibody incubated in the absence (curve 3) or presence (curve 4) of the trisaccharide (1 mg/ml). (B): Non-αGal antibodies incubated in the absence (curve 3) or presence (curve 4) of the trisaccharide (1 mg/ml). […]\nVarious fractions derived from human serum were analyzed by flow cytometry. […]\nTo directly detect non-anti-αGal antibodies from the S2 fraction, we isolated these antibodies by using a pRBC absorption/elution method. The eluted fraction (non-αGal antibodies) was then measured for its binding to pRBCs in the presence or absence of the trisaccharide. […]"}, "pRBCs [3]": {"system": "pRBCs", "experiment": "Effect of ssDNA and thyroglobulin on S1- or S2-induced hemagglutination of pRBCs", "conditions": "final concentration 1 mg/ml, 4° C. 3 hr", "from_the_text": "To determine whether the xenoreactive antibodies that we characterized in the binding of pRBCs are polyreactive, we tested the effect of ssDNA and thyroglobulin on binding of antibodies by hemagglutination assays and flow cytometry analyses (Turman M A, Casali P, Notkins A L, Bach F H, and Platt J L (1991) Transplantation 52:710-717). To ensure that the xenoreactive antibodies were not present in excess, we titrated the amount of antibodies used in the hemagglutination assays and chose the dilution that produced an intermediate strength (2+ or 3+) for inhibition. Fraction S1 or S2 was pre-incubated with ssDNA or thyroglobulin (final concentration 1 mg/ml) at 4° C. for 3 hr before adding pRBCs for the hemagglutination assay."}},
  "data": [
    {"compound": "CC(=O)N[C@H]1C(O)O[C@H](CO)[C@@H](O[C@@H]2O[C@H](CO)[C@H](O)[C@H](O[C@H]3O[C@H](CO)[C@H](O)[C@H](O)[C@H]3O)[C@H]2O)[C@@H]1O", "note": "(some centres unmarked) [trisaccharide, Galα1,3Galβ1,4GlcNAc]", "values": [
      {"measurement": "inhibition of cell lysis", "setting": "pRBCs [1]", "result": "approximately 50%"},
      {"measurement": "inhibition of anti-αGal antibody in normal human serum", "setting": "pRBCs [2]; trisaccharide 1 mg/ml, flow cytometry", "result": "completely inhibited"},
      {"measurement": "inhibition of IgG versus IgM binding of S1 to pRBCs", "setting": "pRBCs [2]; various trisaccharide concentrations, FIG. 8", "result": "inhibit IgG binding more efficiently than IgM binding"}
    ]},
    {"compound": "thyroglobulin: thyroglobulin used to test polyreactivity of the antibodies", "values": [
      {"measurement": "inhibitory effect on S1- or S2-induced hemagglutination", "setting": "pRBCs [3]", "result": "neither ssDNA nor thyroglobulin showed any inhibitory effect"},
      {"measurement": "effect on binding of xenoreactive antibodies to pRBCs", "setting": "pRBCs [2]; pre-incubation at 0.01, 0.1 or 1.0 mg/ml, FIG. 11", "result": "little affected, if any"}
    ]}
  ]
}
